# Patent US20250326771A1, “PIPERAZINE DERIVATIVES USEFUL IN HIV THERAPY” (VIIV HEALTHCARE COMPANY, priority 2022, published 2025)
# Like-named read-outs stand apart in the source and are kept apart here.
# Tests used:
# [1] = tested on: Jurkat HIV-luciferase clones; assay: Jurkat latency reversal assay; type: cell-based; settings: Homo sapiens, 48 h; Jurkat latency reversal assay potency; read-out: Jurkat pEC50 (converted)
# Summary of the method: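 Latency reversal was scored as provirus-driven luciferase luminescence in pooled Jurkat HIV-luc clones after 48 h compound exposure at 37° C. EC50 and maximal activation over vehicle were fitted with a four-parameter logistic model.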
# cIAP1-BIR3 = cIAP1-BIR3 (Homo sapiens (Human), UniProt Q13490); assay: BIR binding assay (FRET competition), cIAP1 BIR3; settings: for cIAP1 BIR3 vs BIR2 separation window: fold separation (FS) for cIAP1
# Summary of the method: (§1)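 615/665 nm FRET ratio. Compound, His-domain and 200 nM AF647-SMAC peptide incubated 60 min, then 2 nM Eu-W1024 for 30 min. Domains: cIAP1-BIR3 50 nM; XIAP-BIR3 100 nM; cIAP1-BIR2, cIAP2-BIR2 325 nM each. 15-pt 3-fold series; variable-slope IC50.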
# cIAP1-BIR2 = cIAP1-BIR2 (Homo sapiens (Human), UniProt Q13490); assay: BIR binding assay (FRET competition), cIAP1 BIR2
# Summary of the method: as §1
# cIAP2-BIR3 = cIAP2-BIR3 (Homo sapiens (Human), UniProt Q13489); assay: BIR binding assay (FRET competition), cIAP2 BIR3; settings: for cIAP2 BIR3 vs BIR2 separation window: fold separation (FS) for cIAP2
# cIAP2-BIR2 = cIAP2-BIR2 (Homo sapiens (Human), UniProt Q13489); assay: BIR binding assay (FRET competition), cIAP2 BIR2
# Summary of the method: as §1
# XIAP-BIR3 = XIAP-BIR3 (Homo sapiens (Human), UniProt P98170); assay: BIR binding assay (FRET competition), XIAP BIR3; settings: for XIAP BIR3 vs BIR2 separation window: fold separation (FS) for XIAP
# Summary of the method: as §1
# XIAP-BIR2 = XIAP-BIR2 (Homo sapiens (Human), UniProt P98170); assay: BIR binding assay (FRET competition), XIAP BIR2; settings: read-out: XIAP BIR2 (pIC50) (converted)
# Summary of the method: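 Competitive TR-FRET used His-tagged XIAP-BIR2 (200 nM) and 200 nM AlexaFluor647-labelled AVPIAQKSE SMAC peptide in HEPES buffer pH 7.4 with CHAPS, glycerol and DTT, incubated 60 min before 30 min with 2 nM Eu-W1024. The 615/665 nm ratio from a 15-point, 3-fold series was fit with a four-parameter model for IC50/pIC50.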
# cIAP2-BIR3, sequence (Q13489 238-349): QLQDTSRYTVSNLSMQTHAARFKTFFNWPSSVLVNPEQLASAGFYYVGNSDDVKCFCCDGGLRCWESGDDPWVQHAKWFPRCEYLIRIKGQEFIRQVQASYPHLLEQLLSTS
# cIAP1-BIR3, sequence (Q13490 253-363): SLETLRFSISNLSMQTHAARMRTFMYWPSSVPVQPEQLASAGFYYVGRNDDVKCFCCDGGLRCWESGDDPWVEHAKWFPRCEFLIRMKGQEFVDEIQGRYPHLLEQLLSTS
# cIAP2-BIR2, sequence (Q13489 158-242): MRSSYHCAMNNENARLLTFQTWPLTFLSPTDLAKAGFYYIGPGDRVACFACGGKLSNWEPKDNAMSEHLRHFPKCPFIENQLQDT
# cIAP1-BIR2, sequence (Q13490 173-257): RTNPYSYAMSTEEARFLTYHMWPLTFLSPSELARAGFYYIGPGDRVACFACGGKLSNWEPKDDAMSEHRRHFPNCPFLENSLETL
# XIAP-BIR3, sequence (P98170 241-356): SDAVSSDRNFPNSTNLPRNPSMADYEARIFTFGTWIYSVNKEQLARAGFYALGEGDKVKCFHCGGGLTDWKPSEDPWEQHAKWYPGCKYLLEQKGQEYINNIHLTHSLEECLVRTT
# XIAP-BIR2, sequence (P98170 124-240): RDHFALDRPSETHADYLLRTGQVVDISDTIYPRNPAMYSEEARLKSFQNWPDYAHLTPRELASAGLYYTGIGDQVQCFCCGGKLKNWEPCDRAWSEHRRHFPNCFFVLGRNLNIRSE
Structure (SMILES),EC50 [1],IC50 (cIAP1-BIR3),cIAP1 BIR3 vs BIR2 separation window (cIAP1-BIR3),IC50 (cIAP1-BIR2),IC50 (cIAP2-BIR3),cIAP2 BIR3 vs BIR2 separation window (cIAP2-BIR3),IC50 (cIAP2-BIR2),IC50 (XIAP-BIR3),XIAP BIR3 vs BIR2 separation window (XIAP-BIR3),IC50 (XIAP-BIR2; FRET competition binding),IC50 (XIAP-BIR2; FRET competition)
"C[C@@H]1CN(CC(=O)N2CC(C)(C)c3[nH]c(=O)c(Cc4ccc(F)cc4)cc32)[C@@H](CN2CCO[C@H](C(=O)NCC#CC#CCNC(=O)[C@@H]3CN(C[C@H]4CN[C@H](C)CN4CC(=O)N4CC(C)(C)c5[nH]c(=O)c(Cc6ccc(F)cc6)cc54)CCO3)C2)CN1 [Example 93, (2S,2'S)-N,N′-(hexa-2,4-diyne-1,6-diyl)bis(4-(((2R,5R)-1-(2-(6-(4-fluorobenzyl)-3,3-dimethyl-5-oxo-2,3,4,5-tetrahydro-1H-pyrrolo[3,2-b]pyridin-1-yl)-2-oxoethyl)-5-methylpiperazin-2-yl)methyl)morpholine-2-carboxamide)]",12.6 to 63.1 nM,7.94 to 15.8 nM,"++ (1,000>FS>100)",22.4 to 1000 nM,7.94 to 15.8 nM,"+++ (10,000>FS>1,000)",1000 to 3160 nM,31.6 to 501 nM,"++++ (FS>10,000)",10000 to 51300 nM,
"C[C@@H]1CN(CC(=O)N2CC(C)(C)c3[nH]c(=O)c(Cc4ccccc4)cc32)[C@@H](CN2CCO[C@H](C(=O)NCc3ccc(CNC(=O)[C@@H]4CN(C[C@H]5CN[C@H](C)CN5CC(=O)N5CC(C)(C)c6[nH]c(=O)c(Cc7ccccc7)cc65)CCO4)cc3)C2)CN1 [Compound 186, (2S,2′S)-N,N′-(1,4-phenylenebis(methylene)) bis(4-(((2R,5R)-1-(2-(6-benzyl-3,3-dimethyl-5-oxo-2,3,4,5-tetrahydro-1H-pyrrolo[3,2-b]pyridin-1-yl)-2-oxoethyl)-5-methylpiperazin-2-yl)methyl)morpholine-2-carboxamide)]",12.6 to 63.1 nM,7.94 to 15.8 nM,"++ (1,000>FS>100)",22.4 to 1000 nM,1.38 to 7.94 nM,"+++ (10,000>FS>1,000)",1000 to 3160 nM,15.8 to 31.6 nM,"++++ (FS>10,000)",,10000 to 51300 nM
"C[C@@H]1CN(CC(=O)N2CC(C)(C)c3[nH]c(=O)c(Cc4ccc(F)cc4)cc32)[C@@H](CN2CCO[C@H](C(=O)N3CCCN(C(=O)[C@@H]4CN(C[C@H]5CN[C@H](C)CN5CC(=O)N5CC(C)(C)c6[nH]c(=O)c(Cc7ccc(F)cc7)cc65)CCO4)CC3)C2)CN1 [Example 131, 1,1′-(2,2′-((3R,3′R,6R,6′R)-(((2S,2'S)-(1,4-diazepane-1,4-dicarbonyl)bis(morpholine-2,4-diyl))bis(methylene))bis(3-methylpiperazine-6,1-diyl))bis(acetyl))bis(6-(4-fluorobenzyl)-3,3-dimethyl-1,2,3,4-tetrahydro-5H-pyrrolo[3,2-b]pyridin-5-one)]",12.6 to 63.1 nM,31.6 to 501 nM,"++ (1,000>FS>100)",1000 to 3160 nM,7.94 to 15.8 nM,"+++ (10,000>FS>1,000)",1000 to 3160 nM,15.8 to 31.6 nM,"++++ (FS>10,000)",10000 to 51300 nM,
"C[C@@H]1CN(CC(=O)N2CC(C)(C)c3[nH]c(=O)c(Cc4ccc(F)cc4)cc32)[C@@H](CN2CCC(CCNC(=O)c3ccc(C(=O)NCCC4CCN(C[C@H]5CN[C@H](C)CN5CC(=O)N5CC(C)(C)c6[nH]c(=O)c(Cc7ccc(F)cc7)cc65)CC4)cc3)CC2)CN1 [Example 103, N^1,N^4-bis(2-(1-(((2R,5R)-1-(2-(6-(4-fluorobenzyl)-3,3-dimethyl-5-oxo-2,3,4,5-tetrahydro-1H-pyrrolo[3,2-b]pyridin-1-yl)-2-oxoethyl)-5-methylpiperazin-2-yl)methyl)piperidin-4-yl)ethyl)terephthalamide]",63.1 to 316 nM,7.94 to 15.8 nM,"+++ (10,000>FS>1,000)",3160 to 10000 nM,7.94 to 15.8 nM,"+++ (10,000>FS>1,000)",3160 to 10000 nM,7.94 to 15.8 nM,"++++ (FS>10,000)",10000 to 51300 nM,
C[C@@H]1CN(CC(=O)N2CC(C)(C)c3[nH]c(=O)c(Cc4ccc(F)cc4)cc32)[C@@H](CN2CCN(Cc3cn(CCC(=O)N4CCN(C[C@H]5CN[C@H](C)CN5CC(=O)N5CC(C)(C)c6[nH]c(=O)c(Cc7ccc(F)cc7)cc65)[C@H](C)C4)nn3)C[C@H]2C)CN1 [Compound 156],63.1 to 316 nM,15.8 to 31.6 nM,"++ (1,000>FS>100)",1000 to 3160 nM,7.94 to 15.8 nM,"+++ (10,000>FS>1,000)",1000 to 3160 nM,15.8 to 31.6 nM,"++++ (FS>10,000)",,10000 to 51300 nM
